# According to EPA's ToxRefDB 2:
# Assays:
# rat [1] = settings: Subchronic oral toxicity in rodents, other, Feed, dose end: 10 week, group: systemic, systemic / in life observation / body weight / body weight gain
# rat [2] = settings: Sub-acute repeat dose toxicity; fischer; Oral; Gavage/Intubation; dose end: 14 day; group: systemic; systemic / hematology / leukocyte (wbc) count differential / leukocyte (wbc) + systemic / hematology / nucleated red blood cell (nrbc) / …
# rat [3] = settings: Carcinogenicity, other, Oral, Feed, dose end: 102 week, group: systemic
# rat [4] = settings: Subchronic oral toxicity in rodents, fischer, Gavage/Intubation, dose end: 13 week
# rat [5] = settings: Combined chronic toxicity/carcinogenicity, sprague dawley, Oral, Feed, dose end: 24 month, group: systemic
# rat [6] = settings: Subchronic oral toxicity in rodents, sprague dawley, Feed, dose end: 90 day
# rat [7] = settings: Prenatal developmental toxicity study, sprague dawley, Oral, Gavage/Intubation, dose end: 15 GD
# dog [8] = settings: Chronic toxicity, beagle, Oral, Capsule, dose end: 107 week, group: systemic
# rat [9] = settings: Multigenerational reproductive toxicity study, wistar, Oral, Feed, dose end: 2 generation
# mouse = settings: Carcinogenicity, cd1, Oral, Feed, dose end: 104 week, group: systemic
# rat [10] = settings: Prenatal developmental toxicity study, sprague dawley, Oral, Gavage/Intubation, dose end: 15 GD; remark: listed apart in the source
# rabbit = settings: Prenatal developmental toxicity study, new zealand white, Oral, Gavage/Intubation, dose end: 19 GD
# dog [11] = settings: Chronic toxicity; beagle; Oral; Feed; dose end: 52 week; group: systemic; systemic / clinical chemistry / aspartate aminotransferase (ast/sgot) / aspartate aminotransferase (ast/sgot) + systemic / clinical …
# rat [12] = settings: Combined chronic toxicity/carcinogenicity, sprague dawley, Oral, Feed, dose end: 24 month, group: systemic; remark: listed apart in the source
# dog [13] = settings: Subchronic oral toxicity in nonrodent, beagle, Feed, dose end: 90 day, group: systemic, systemic / hematology / leukocyte (wbc) count differential / leukocyte (wbc) + systemic / hematology / mean corpuscular hemoglobin …
# rat [14] = settings: Multigenerational reproductive toxicity study, sprague dawley, Oral, Feed, dose end: 2 generation
# rat [15] = settings: Subchronic oral toxicity in rodents, sprague dawley, Feed, dose end: 90 day, group: systemic
# [16] = systemic / pathology microscopic / nose / inflammation
# [17] = group: cholinesterase, cholinesterase / cholinesterase / cholinesterase / cholinesterase (che)
# [18] = group: systemic, systemic / hematology / hematocrit (hct) / hematocrit (hct) + systemic / hematology / hemoglobin (hgb) / hemoglobin (hgb) + systemic / in …
# [19] = group: systemic, systemic / hematology / polychromasia / polychromasia
# [20] = systemic / pathology microscopic / thyroid gland / hyperplasia + systemic / pathology microscopic / thyroid gland / hypertrophy + systemic…
# [21] = group: cholinesterase, cholinesterase / cholinesterase / cholinesterase / plasma cholinesterase (che)
# [22] = group: systemic, systemic / organ weight / thyroid gland / relative to body weight + systemic / pathology microscopic / kidney / eosinophilic focus + …
# [23] = group: systemic, systemic / pathology microscopic / kidney / eosinophilic focus + systemic / pathology microscopic / kidney / hyaline droplet
# [24] = group: developmental, developmental / developmental malformation / bone / incomplete ossification + systemic / in life observation / body weight / fetal weight + …
# [25] = group: maternal, reproductive / reproductive performance / fertility / fertility + reproductive / reproductive performance / resorptions / resorptions + …
# [26] = systemic / organ weight / liver / relative to body weight
# [27] = systemic / organ weight / liver / relative to body weight + systemic / clinical chemistry / alkaline phosphatase (alp/alk) / alkaline …
# [28] = group: offspring, systemic / in life observation / body weight / offspring (pup) weight gain
# [29] = group: parental, systemic / in life observation / body weight / body weight gain
# [30] = systemic / organ weight / liver / absolute + systemic / organ weight / adrenal gland / absolute + systemic / organ weight / adrenal gland / …
# [31] = group: developmental, systemic / in life observation / body weight / fetal weight + developmental / developmental malformation / bone / unossified + developmental…
# [32] = group: maternal, systemic / in life observation / body weight / body weight gain + systemic / in life observation / clinical signs / salivation + systemic / …
# [33] = group: developmental, systemic / in life observation / body weight / fetal weight + developmental / developmental malformation / other / other
# [34] = group: maternal, reproductive / reproductive performance / aborted / aborted + systemic / in life observation / food consumption / food consumption + …
# [35] = systemic / in life observation / body weight / body weight
# [36] = group: offspring, systemic / in life observation / body weight / offspring (pup) weight
# [37] = systemic / clinical chemistry / globulins / globulins + systemic / clinical chemistry / glucose / glucose + systemic / in life observation…
# [38] = systemic / organ weight / spleen / absolute + systemic / organ weight / spleen / relative to body weight
smiles,measurement,setting,value
"Cc1cccc(C)c1N [2,6-Dimethylaniline]",LEL,rat [1],150 mg/kg/day
same,LOAEL,rat [1],150 mg/kg/day
same,NEL,rat [1],50 mg/kg/day
same,NOAEL,rat [1],50 mg/kg/day
same,LEL,rat [2],310 mg/kg/day
same,LOAEL,rat [2],310 mg/kg/day
same,NEL,rat [2],160 mg/kg/day
same,NOAEL,rat [2],160 mg/kg/day
same,LOAEL,rat [3]; systemic / in life observation / body weight / body weight gain,50 mg/kg/day
same,NOAEL,rat [3]; systemic / in life observation / body weight / body weight gain + systemic / pathology microscopic / adrenal gland / adenoma + systemic / …,15 mg/kg/day
same,LEL,rat [3]; [16],15 mg/kg/day
same,NEL,rat [3]; [16],< 15 mg/kg/day
same,LEL,rat [4]; [17],160 mg/kg/day
same,LOAEL,rat [4]; [17],> 310 mg/kg/day
same,NEL,rat [4]; [17],80 mg/kg/day
same,NOAEL,rat [4]; [17],≥ 310 mg/kg/day
same,LOAEL,rat [4]; [18],310 mg/kg/day
same,NOAEL,rat [4]; [18],160 mg/kg/day
same,LEL,rat [4]; [19],20 mg/kg/day
same,NEL,rat [4]; [19],< 20 mg/kg/day
CC(C)N1C(=O)N(c2ccccc2)CSC1=NC(C)(C)C [Buprofezin],LOAEL,rat [5]; systemic / pathology microscopic / thyroid gland / hyperplasia + systemic / pathology microscopic / thyroid gland / hypertrophy,8.7 mg/kg/day
same,LEL,rat [5]; [20],8.7 mg/kg/day
same,NEL,rat [5]; [20],0.9 mg/kg/day
same,NOAEL,rat [5]; [20],0.9 mg/kg/day
same,LEL,rat [6]; [21],362 mg/kg/day
same,LOAEL,rat [6]; [21],> 362 mg/kg/day
same,NEL,rat [6]; [21],81.8 mg/kg/day
same,NOAEL,rat [6]; [21],≥ 362 mg/kg/day
same,LOAEL,rat [6]; [22],68.6 mg/kg/day
same,NOAEL,rat [6]; [22],13 mg/kg/day
same,LEL,rat [6]; [23],3.4 mg/kg/day
same,NEL,rat [6]; [23],< 3.4 mg/kg/day
same,LEL,"rat [7]; group: developmental, developmental / developmental malformation / bone / incomplete ossification + developmental / developmental malformation / bone / unossified",200 mg/kg/day
same,LOAEL,rat [7]; [24],800 mg/kg/day
same,NEL,rat [7]; [24],50 mg/kg/day
same,NOAEL,rat [7]; [24],200 mg/kg/day
same,LOAEL,rat [7]; [25],800 mg/kg/day
same,NEL,rat [7]; [25],50 mg/kg/day
same,NOAEL,rat [7]; [25],200 mg/kg/day
same,LEL,"rat [7]; group: maternal, systemic / in life observation / water consumption / water consumption",200 mg/kg/day
same,LEL,dog [8]; [26],2 mg/kg/day
same,NEL,dog [8]; [26],< 2 mg/kg/day
same,LOAEL,dog [8]; [27],20 mg/kg/day
same,NOAEL,dog [8]; [27],2 mg/kg/day
same,LEL,rat [9]; [28],81.5 mg/kg/day
same,LOAEL,rat [9]; [28],81.5 mg/kg/day
same,NEL,rat [9]; [28],7.89 mg/kg/day
same,NOAEL,rat [9]; [28],7.89 mg/kg/day
same,LEL,rat [9]; [29],81.5 mg/kg/day
same,LOAEL,rat [9]; [29],> 81.5 mg/kg/day
same,NEL,rat [9]; [29],7.89 mg/kg/day
same,NOAEL,rat [9]; [29],≥ 81.5 mg/kg/day
same,LOAEL,mouse; systemic / organ weight / liver / absolute,17.4 mg/kg/day
same,NEL,mouse; [30],1.82 mg/kg/day
same,NOAEL,mouse; [30],1.82 mg/kg/day
same,LEL,mouse; systemic / organ weight / liver / absolute + systemic / organ weight / liver / relative to body weight,17.4 mg/kg/day
COC(=O)c1ccccc1S(=O)(=O)NC(=O)N(C)c1nc(C)nc(OC)n1 [Tribenuron-methyl],LOAEL,"rat [10]; group: developmental, systemic / in life observation / body weight / fetal weight + developmental / developmental malformation / bone / unossified",125 mg/kg/day
same,LEL,rat [10]; [31],125 mg/kg/day
same,NEL,rat [10]; [31],20 mg/kg/day
same,NOAEL,rat [10]; [31],20 mg/kg/day
same,LEL,rat [10]; [32],125 mg/kg/day
same,LOAEL,rat [10]; [32],125 mg/kg/day
same,NEL,rat [10]; [32],20 mg/kg/day
same,NOAEL,rat [10]; [32],20 mg/kg/day
same,LOAEL,"rabbit; group: developmental, systemic / in life observation / body weight / fetal weight",80 mg/kg/day
same,LEL,rabbit; [33],80 mg/kg/day
same,NEL,rabbit; [33],20 mg/kg/day
same,NOAEL,rabbit; [33],20 mg/kg/day
same,LOAEL,"rabbit; group: maternal, reproductive / reproductive performance / aborted / aborted + systemic / in life observation / food consumption / food consumption",80 mg/kg/day
same,LEL,rabbit; [34],80 mg/kg/day
same,NEL,rabbit; [34],20 mg/kg/day
same,NOAEL,rabbit; [34],20 mg/kg/day
same,LEL,dog [11],8.16 mg/kg/day
same,LOAEL,dog [11],8.16 mg/kg/day
same,NEL,dog [11],0.79 mg/kg/day
same,NOAEL,dog [11],0.79 mg/kg/day
same,LEL,rat [12]; [35],1.25 mg/kg/day
same,LOAEL,rat [12]; [35],12.5 mg/kg/day
same,NEL,rat [12]; [35],< 1.25 mg/kg/day
same,NOAEL,rat [12]; systemic / in life observation / body weight / body weight + systemic / pathology microscopic / mammary gland / adenocarcinoma + systemic / …,1.25 mg/kg/day
same,LEL,dog [13],73.3 mg/kg/day
same,LOAEL,dog [13],> 73.3 mg/kg/day
same,NEL,dog [13],14.9 mg/kg/day
same,NOAEL,dog [13],≥ 73.3 mg/kg/day
same,LEL,rat [14]; [36],1.9 mg/kg/day
same,NEL,rat [14]; [36],< 1.9 mg/kg/day
same,NOAEL,rat [14]; [28],1.9 mg/kg/day
same,LOAEL,"rat [14]; group: offspring, systemic / in life observation / body weight / offspring (pup) weight gain + systemic / in life observation / body weight / offspring (pup) …",19 mg/kg/day
same,LEL,rat [14]; [29],19 mg/kg/day
same,LOAEL,rat [14]; [29],21 mg/kg/day
same,NEL,rat [14]; [29],1.9 mg/kg/day
same,NOAEL,"rat [14]; group: parental, systemic / in life observation / body weight / body weight gain + systemic / in life observation / body weight / body weight",2.2 mg/kg/day
same,LOAEL,rat [15]; [37],118 mg/kg/day
same,NOAEL,rat [15]; [37],7 mg/kg/day
same,LEL,rat [15]; [38],8 mg/kg/day
same,NEL,rat [15]; [38],< 8 mg/kg/day
